Patent US20250011300A1, “PIPERAZINYLSULFONYLARYL COMPOUNDS FOR TREATMENT OF BACTERIAL INFECTIONS” (Hoffmann-La Roche Inc., priority 2021, published 2025)
Values after ≈ are worked out from the molar mass of the structure shown.

How the values were obtained:
[1] = molecular target: Escherichia coli LpxH (UDP-2,3-diacylglucosamine hydrolase) (Escherichia coli (strain K12), UniProt P43341); experiment: 50% Inhibitory Concentration (IC50) to LpxH, UMP/CMP-Glo Glycosyltransferase Assay kit; assay type: biochemical
Sequence of Escherichia coli LpxH (UDP-2,3-diacylglucosamine hydrolase) (P43341 whole entry): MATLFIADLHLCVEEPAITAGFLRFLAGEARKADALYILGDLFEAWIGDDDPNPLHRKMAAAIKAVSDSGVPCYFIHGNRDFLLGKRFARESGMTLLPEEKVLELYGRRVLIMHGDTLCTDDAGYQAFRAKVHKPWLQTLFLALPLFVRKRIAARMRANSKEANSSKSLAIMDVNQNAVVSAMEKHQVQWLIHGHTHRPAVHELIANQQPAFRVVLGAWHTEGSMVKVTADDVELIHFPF
How it was run: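 LpxH hydrolysis of UDP-2,3-diacylglucosamine to lipid X and UMP; UMP produced is converted to ATP and quantified by luciferase luminescence (UMP/CMP-Glo). Inhibition taken from reduced light output.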

E. coli (ATCC 25922) = experiment: Minimal Inhibitory Concentration (MIC) assay, E. coli; assay type: cell-based; details: Escherichia coli, ATCC25922; E. coli ATCC 25922, CAMHB, 20 hours at 35° C.; read-out: MIC E. coli ATCC 25922
How it was run: (§1)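 Broth microdilution in cation-adjusted Mueller Hinton broth, inoculum 5×10^5 CFU/mL, compounds 2-fold serially diluted from 10 mM DMSO stocks. Plates incubated 20 hours at 35° C in ambient air; MIC (μg/mL) is the lowest concentration preventing visible growth.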

[2] = system: K. pneumonia (ATCC 43816); experiment: Minimal Inhibitory Concentration (MIC) assay, K. pneumonia; assay type: cell-based; details: Klebsiella pneumoniae; K. pneumoniae ATCC43816, CAMHB, 20 hours at 35° C.; read-out: MIC K. pneumoniae ATCC43816
How it was run: as §1

Compound	IC50 [1] [nM]	MIC (E. coli (ATCC 25922)) [µg/mL]	MIC [2] [µg/mL]
NC1CC(=O)N(c2ccc(S(=O)(=O)N3CCN(c4cc(C(F)(F)c5ccccc5)cc(Cl)n4)CC3)cc2)C1 (stereo not drawn) [Example 73, 4-Amino-1-[4-[4-[6-chloro-4-[difluoro(phenyl)methyl]-2-pyridyl]piperazin-1-yl]sulfonylphenyl]pyrrolidin-2-one]	32	0.44 (≈ 0.783 µM)	0.44 (≈ 0.783 µM)
Cc1cc(C(F)(F)c2ccccc2)nc(N2CCN(S(=O)(=O)c3ccc(N4CC(N)CC4=O)cc3)CC2)n1 (stereo not drawn) [Example 76, 4-Amino-1-[4-[4-[4-[difluoro(phenyl)methyl]-6-methyl-pyrimidin-2-yl]piperazin-1-yl]sulfonylphenyl]pyrrolidin-2-one]	27.6	0.51 (≈ 0.94 µM)	1.03 (≈ 1.9 µM)
NC1CC(=O)N(c2ccc(S(=O)(=O)N3CCN(c4cc(C(F)(F)c5ccccc5)nc(Cl)n4)CC3)cc2)C1 (stereo not drawn) [Example 77, 4-Amino-1-[4-[4-[2-chloro-6-[difluoro(phenyl)methyl]pyrimidin-4-yl]piperazin-1-yl]sulfonylphenyl]pyrrolidin-2-one]	7.1	0.44 (≈ 0.781 µM)	0.44 (≈ 0.781 µM)
NC1CC(=O)N(c2ccc(S(=O)(=O)N3CCN(c4cc(C(F)(F)c5ccccc5)nc(C5CC5)n4)CC3)cc2)C1 (stereo not drawn) [Example 79, 4-Amino-1-[4-[4-[2-cyclopropyl-6-[difluoro(phenyl)methyl]pyrimidin-4-yl]piperazin-1-yl]sulfonylphenyl]pyrrolidin-2-one]	179	14.2 (≈ 25 µM)	> 28.4
COc1cc(C(F)(F)c2ccccc2)nc(N2CCN(S(=O)(=O)c3ccc(N4CC(N)CC4=O)cc3)CC2)n1 (stereo not drawn) [Example 82, 4-Amino-1-[4-[4-[4-[difluoro(phenyl)methyl]-6-methoxy-pyrimidin-2-yl]piperazin-1-yl]sulfonylphenyl]pyrrolidin-2-one]	247	6.98 (≈ 12.5 µM)	6.98 (≈ 12.5 µM)
Cc1nc(N2CCN(S(=O)(=O)c3ccc(N4C[C@H](N)CC4=O)cc3)CC2)cc(C(F)(F)c2ccccc2)n1 [Example 83, (4R)-4-Amino-1-[4-[4-[6-[difluoro(phenyl)methyl]-2-methyl-pyrimidin-4-yl]piperazin-1-yl]sulfonylphenyl]pyrrolidin-2-one]	3.69	1.7 (≈ 3.13 µM)	1.7 (≈ 3.13 µM)
C=Cc1nc(N2CCN(S(=O)(=O)c3ccc(N4CC(N)CC4=O)cc3)CC2)cc(C(F)(F)c2ccccc2)n1 (stereo not drawn) [Example 84, 4-Amino-1-[4-[4-[6-[difluoro(phenyl)methyl]-2-vinyl-pyrimidin-4-yl]piperazin-1-yl]sulfonylphenyl]pyrrolidin-2-one]	14.4	4.18 (≈ 7.54 µM)	16.7 (≈ 30.1 µM)
O=C1O[C@H]2CCNC[C@H]2N1c1ccc(S(=O)(=O)N2CCN(c3cc(C(F)(F)c4ccccc4)cc(Cl)n3)CC2)cc1 [Example 87, (3aR,7aS)-3-[4-[4-[6-chloro-4-[difluoro(phenyl)methyl]-2-pyridyl]piperazin-1-yl]sulfonylphenyl]-3a,4,5,6,7,7a-hexahydrooxazolo[4,5-c]pyridin-2-one]	11.6	0.55 (≈ 0.91 µM)	1.09 (≈ 1.8 µM)
NCC1CN(c2ccc(S(=O)(=O)N3CCN(c4cc(C(F)(F)c5ccccc5)cc(Cl)n4)CC3)cc2)C(=O)O1 (stereo not drawn) [Example 88, 5-(Aminomethyl)-3-[4-[4-[6-chloro-4-[difluoro(phenyl)methyl]-2-pyridyl]piperazin-1-yl]sulfonylphenyl]oxazolidin-2-one]	13.8	0.26 (≈ 0.45 µM)	0.53 (≈ 0.917 µM)
NC1CC(=O)N(c2ccc(S(=O)(=O)N3CCN(c4cc(C(F)(F)c5ccccn5)cc(Cl)n4)CC3)cc2)C1 (stereo not drawn) [Example 89, 4-Amino-1-[4-[4-[6-chloro-4-[difluoro(2-pyridyl)methyl]-2-pyridyl]piperazin-1-yl]sulfonylphenyl] pyrrolidin-2-one]	60.4	0.88 (≈ 1.56 µM)	0.88 (≈ 1.56 µM)
NC1CC(=O)N(c2ccc(S(=O)(=O)N3CCN(c4cc(C(F)(F)c5cccnc5)cc(Cl)n4)CC3)cc2)C1 (stereo not drawn) [Example 90, 4-Amino-1-[4-[4-[6-chloro-4-[difluoro(3-pyridyl)methyl]-2-pyridyl]piperazin-1-yl]sulfonylphenyl]pyrrolidin-2-one]	12.4	1.76 (≈ 3.13 µM)	1.76 (≈ 3.13 µM)
NC1CC(=O)N(c2ccc(S(=O)(=O)N3CCN(c4cc(C(F)(F)c5ccncc5)cc(Cl)n4)CC3)cc2)C1 (stereo not drawn) [Example 91, 4-Amino-1-[4-[4-[6-chloro-4-[difluoro(4-pyridyl)methyl]-2-pyridyl]piperazin-1-yl]sulfonylphenyl]pyrrolidin-2-one]	10.7	1.76 (≈ 3.13 µM)	1.76 (≈ 3.13 µM)
NC1CC(=O)N(c2ccc(S(=O)(=O)N3CCN(c4cc(C(F)(F)c5cncnc5)cc(Cl)n4)CC3)cc2)C1 (stereo not drawn) [Example 92, 4-Amino-1-[4-[4-[6-chloro-4-[difluoro(pyrimidin-5-yl)methyl]-2-pyridyl]piperazin-1-yl]sulfonylphenyl]pyrrolidin-2-one]	95.7	2.12 (≈ 3.76 µM)	4.24 (≈ 7.52 µM)
NC1CC(=O)N(c2ccc(S(=O)(=O)N3CCN(c4cc(C(F)(F)c5cnccn5)cc(Cl)n4)CC3)cc2)C1 (stereo not drawn) [Example 93, 4-Amino-1-[4-[4-[6-chloro-4-[difluoro(pyrazin-2-yl)methyl]-2-pyridyl]piperazin-1-yl]sulfonylphenyl]pyrrolidin-2-one]	12.4	1.76 (≈ 3.12 µM)	1.76 (≈ 3.12 µM)
NC1CC(=O)N(c2ccc(S(=O)(=O)N3CCN(c4cc(C(F)(F)c5ncccn5)cc(Cl)n4)CC3)cc2)C1 (stereo not drawn) [Example 94, 4-Amino-1-[4-[4-[6-chloro-4-[difluoro(pyrimidin-2-yl)methyl]-2-pyridyl]piperazin-1-yl]sulfonylphenyl]pyrrolidin-2-one]	186	3.53 (≈ 6.26 µM)	3.53 (≈ 6.26 µM)
NC1CC(=O)N(c2ccc(S(=O)(=O)N3CCN(c4cc(C(F)(F)C5CCOCC5)cc(Cl)n4)CC3)cc2)C1 (stereo not drawn) [Example 95, 4-Amino-1-[4-[4-[6-chloro-4-[difluoro(tetrahydropyran-4-yl)methyl]-2-pyridyl]piperazin-1-yl]sulfonylphenyl]pyrrolidin-2-one]	57.9	0.89 (≈ 1.56 µM)	0.89 (≈ 1.56 µM)
NC1CC(=O)N(c2ccc(S(=O)(=O)N3CCN(c4cc(C(F)(F)C5CCOC5)cc(Cl)n4)CC3)cc2)C1 (stereo not drawn) [Example 96, 4-Amino-1-[4-[4-[6-chloro-4-[difluoro(tetrahydrofuran-3-yl)methyl]-2-pyridyl]piperazin-1-yl]sulfonylphenyl]pyrrolidin-2-one]	3.6	3.48 (≈ 6.26 µM)	1.74 (≈ 3.13 µM)
NC1CC(=O)N(c2ccc(S(=O)(=O)N3CCN(c4cc(C(F)(F)C5COC5)cc(Cl)n4)CC3)cc2)C1 (stereo not drawn) [Example 97, 4-Amino-1-[4-[4-[6-chloro-4-[difluoro(oxetan-3-yl)methyl]-2-pyridyl]piperazin-1-yl]sulfonylphenyl]pyrrolidin-2-one]	88.6	0.85 (≈ 1.57 µM)	1.27 (≈ 2.34 µM)
NC1CC(=O)N(c2ccc(S(=O)(=O)N3CCN(c4cc(C(F)(F)C5=CCOCC5)cc(Cl)n4)CC3)cc2)C1 (stereo not drawn) [Example 98, 4-Amino-1-[4-[4-[6-chloro-4-[3,6-dihydro-2H-pyran-4-yl(difluoro)methyl]-2-pyridyl]piperazin-1-yl]sulfonylphenyl]pyrrolidin-2-one]	47.5	0.89 (≈ 1.57 µM)	0.89 (≈ 1.57 µM)
NC1CC(=O)N(c2ccc(S(=O)(=O)N3CCN(c4cc(C(F)(F)C5CCCOC5)cc(Cl)n4)CC3)cc2)C1 (stereo not drawn) [Example 99, 4-Amino-1-[4-[4-[6-chloro-4-[difluoro(tetrahydropyran-3-yl)methyl]-2-pyridyl]piperazin-1-yl]sulfonylphenyl]pyrrolidin-2-one]	< 3.51	4.01 (≈ 7.03 µM)	0.89 (≈ 1.56 µM)
NC1CC(=O)N(c2ccc(S(=O)(=O)N3CCN(c4cc(C(F)(F)C5CC6CCC(C5)O6)cc(Cl)n4)CC3)cc2)C1 (stereo not drawn) [Example 100, 4-Amino-1-[4-[4-[6-chloro-4-[difluoro(8-oxabicyclo[3.2.1]octan-3-yl)methyl]-2-pyridyl]piperazin-1-yl]sulfonylphenyl]pyrrolidin-2-one]	< 3.36	1.86 (≈ 3.12 µM)	0.93 (≈ 1.56 µM)
N[C@@H]1CC(=O)N(c2ccc(S(=O)(=O)N3CCN(c4cc(C(F)(F)C5C6COCC65)cc(Cl)n4)CC3)cc2)C1 (stereo partly drawn) [Example 101, (4R)-4-amino-1-[4-[4-[6-chloro-4-[difluoro(3-oxabicyclo[3.1.0]hexan-6-yl)methyl]-2-pyridyl]piperazin-1-yl]sulfonylphenyl]pyrrolidin-2-one]	96.8	0.44 (≈ 0.775 µM)	0.89 (≈ 1.57 µM)
N[C@@H]1CC(=O)N(c2ccc(S(=O)(=O)N3CCN(c4cc(C(F)(F)[C@@H]5COCCO5)cc(Cl)n4)CC3)cc2)C1 [Example 102, (4R)-4-amino-1-[4-[4-[6-chloro-4-[[(2S)-1,4-dioxan-2-yl]-difluoro-methyl]-2-pyridyl]piperazin-1-yl]sulfonylphenyl]pyrrolidin-2-one]	10.5	0.89 (≈ 1.56 µM)	0.89 (≈ 1.56 µM)
N[C@@H]1CC(=O)N(c2ccc(S(=O)(=O)N3CCN(c4cc(C(F)(F)[C@H]5COCCO5)cc(Cl)n4)CC3)cc2)C1 [Example 103, (4R)-4-amino-1-[4-[4-[6-chloro-4-[[(2R)-1,4-dioxan-2-yl]-difluoro-methyl]-2-pyridyl]piperazin-1-yl]sulfonylphenyl]pyrrolidin-2-one]	3.5	0.89 (≈ 1.56 µM)	0.89 (≈ 1.56 µM)
N[C@@H]1CC(=O)N(c2ccc(S(=O)(=O)N3CCN(c4cc(C(F)(F)[C@@H]5CNCCO5)cc(Cl)n4)CC3)cc2)C1 [Example 104]	8.76	1.01 (≈ 1.77 µM)	2.01 (≈ 3.52 µM)
